Experimental data published in US11248020B2, “Oligonucleotide compositions and methods for treating diseases” (priority 2017, dated 2022).

Assays:
Alzheimer's Disease = assay: Alzheimer's disease patients scored by MMSE and ADAScog; assay type: in vivo, human; settings: average values per group
Method: In the first control group, the patients received conventional therapy, i.e., a reversible, noncompetitive glutamate receptors antagonist Memantine (10 mg per day). In the second control group the patients received placebo. Test group #4, and Test group #5 received compositions #4 and 5, respectively, in the form of extended release sublingual tablets (also comprising 12% hypromellose; 10% lactose monohydrate; 60% carbopol; 8% Polycarbophil; 10% starch-based gel) used 2 time a day. The patients were scored according to MMSE (Mini-Mental State Examination) and ADAScog (assessment of cognitive impairment) scales. 12 groups of 4 people were formed.

colon cancer = assay: Azoxymethane colon cancer model in rats after total colectomy: recurrences, metastases, survival; assay type: in vivo, male albino Wistar rats
Method: The studies were performed in male albino Wistar rats (Rappolovo breeding nursery), aged 14 weeks, weighing 180-190 g. Prior to the study period, animals (n=600) were kept in identical conditions, and received the same diet. For modeling colon cancer, the animals received Azoxymethane (Sigma) in the amount of 10 mg/kg (in 0.9% NaCl) for 12 weeks. In 26 weeks, the abdomen of anesthetized animals was opened, and the presence and size of colon tumors and metastases was visually assessed. Animals bearing neoplasms of more than 3 mm in diameter and having no observed metastases (360 animals) were subjected to total colectomy. In 2 days after surgery, mono- and/or oligonucleotide mixtures were administered either parenterally (via IV) or enterally (with drinking water). Each group consisted of 20 animals. In 8 weeks, surviving animals were sacrificed (animals were randomized into groups with 10 surviving animals per group), and the recurrence rates and presence of metastases was evaluated.
Enteral Administration The first control group received no treatment. Test group #1, Test group #2, Test group #3, Test group #4, Test group #5, and Test group #6 received mixtures of mono- and/or oligonucleotides (from 1 to 100,000 mcg/kg/day) prepared with the use of different nucleases, as specified in Table 2, below:
The first control group received no treatment. The second control group received conventional therapy consisting of 5-fluorouracil (5 mg/kg/day). Test group #1, Test group #2, Test group #3, Test group #4, and Test group #5 were administered (from 1 to 100,000 mcg/kg/day for 30 days).

[1] = enteral administration (with drinking water), evaluated in 8 weeks
[2] = parenteral administration (via IV), 30 days

| Compound | Patients score ADAScog (Alzheimer's Disease; in 30 days) | Patients score MMSE (Alzheimer's Disease; in 30 days) | Patients score ADAScog (Alzheimer's Disease; in 90 days) | Patients score MMSE (Alzheimer's Disease; in 90 days) | Patients score ADAScog (Alzheimer's Disease; pre-treatment) | Patients score MMSE (Alzheimer's Disease; pre-treatment) | No. of animals in the group with recurrences or metastases (colon cancer; [1]) | No. of animals with metastasis (colon cancer; [1]) | No. of surviving animals/Total No. per group (colon cancer; enteral administration (with drinking water), in 8 weeks) | No. of animals in the group with recurrences or metastases (colon cancer; [2]) | No. of animals with metastasis (colon cancer; [2]) | No. of surviving animals/Total No. of animals per group (colon cancer; [2]) |
| --- | --- | --- | --- | --- | --- | --- | --- | --- | --- | --- | --- | --- |
| CC12CC3CC(C)(C1)CC(N)(C3)C2 [1st control group, Memantine] | 37 | 15 | 37 | 16 | 41 | 13 |  |  |  |  |  |  |
| O=c1[nH]cc(F)c(=O)[nH]1 [2nd control, 5-fluorouracil] |  |  |  |  |  |  | 4 | 7 | 13/20 | 4 | 6 | 14/20 |
